# Test results as given in patent US4087416A, “New heptapeptides and methods for their production” (Parke, Davis & Company, priority 1976, dated 1978).
# Tested on: LRF (luteinizing hormone releasing factor) induced luteinizing hormone (LH) release
# Assay: In vitro LRF antagonist test in rat anterior pituitary cell cultures
# Assay type: cell-based
# Text: Heptapeptides of this invention were screened for LRF antagonist activity in vitro using rat anterior pituitary cell cultures as described by Vale et. al. [Endocrinology, 91, 562 (1972)]. The inhibition of LRF (luteinizing hormone releasing factor) induced luteinizing hormone (LH) release into the culture medium is the endpoint in this in vitro bioassay.
# [1] = Molar Conc. 1×10^-6, first experiment (LRF 5×10^-10)
# [2] = Molar Conc. 1×10^-7, first experiment (LRF 5×10^-10)
# [3] = Molar Conc. 1×10^-8, first experiment (LRF 5×10^-10)
# [4] = Molar Conc. 3.5×10^-7, first experiment (LRF 5×10^-10)
# [5] = Molar Conc. 3.5×10^-8, first experiment (LRF 5×10^-10)
# [6] = Molar Conc. 1×10^-7, second experiment (LRF 3.5×10^-10)
# [7] = Molar Conc. 2×10^-7, second experiment (LRF 3.5×10^-10)
# [8] = Molar Conc. 3.5×10^-7, second experiment (LRF 3.5×10^-10)
substance,measurement,setting,value
N^α -t-Butoxycarbonyl-L-prolyl-N^im -benzyl-L-histidyl-N^im -benzyl L-histidyl-O-benzyl-L-seryl-O-benzyl-L-tyrosyl-L-tryptophyl-D-alanine N-ethylamide,% LH Release Inhibition,[1],101%
same,LH Value,[1],11.36 ng/mL
same,% LH Release Inhibition,[2],77%
same,LH Value,[2],17.83 ng/mL
same,% LH Release Inhibition,[3],24%
same,LH Value,[3],31.92 ng/mL
same,% LH Release Inhibition,[4],99%
same,LH Value,[4],11.90 ng/mL
same,% LH Release Inhibition,[5],55%
same,LH Value,[5],23.65 ng/mL
N^α -t-Butoxycarbonyl-L-prolyl-N^im -benzyl-L-histidyl-N^im -benzyl-L-histidyl-O-benzyl-L-seryl-O-benzyl-L-tyrosyl-L-tryptophyl-D-alanine methyl ester,% LH Release Inhibition,[6],65%
same,LH Value,[6],23.32 ng/mL
same,% LH Release Inhibition,[7],58%
same,LH Value,[7],24.98 ng/mL
same,% LH Release Inhibition,[8],74%
same,LH Value,[8],20.80 ng/mL
"LRF Control: luteinizing hormone releasing factor, also referred to as luteinizing hormone releasing hormone; stimulates the secretion of luteinizing hormone (QHWSYGLRPG; Gonadoliberin-1; UniProt P01148 24-33, looked up) [reference compound]",LH Value,"LRF alone, Molar Conc. 3.5×10^-10, second experiment",40.01 ng/mL
same,LH Value,"LRF alone, Molar Conc. 5×10^-10, first experiment",38.48 ng/mL
